Source: US20120157471A1, “BENZIMIDAZOLE DERIVATIVES” (PFIZER INC., priority 2009, published 2012)

How the values were obtained:
[1] = target: T1, human Smo (amino acids 181-787) (Homo sapiens, UniProt Q99835); assay: Smo radioligand competition binding assay (displacement of 3H-PF-03451358 from HEK293 membranes); settings: for inhibition at 0.05 µM: 0.05 μM test compound, displacement of 3H-PF-03451358, read-out: SMO % inh. @ 0.05 μM; for IC50: radioligand competition binding
T1 construct: expressed in transfected cells; membrane preparation
T1 sequence (Q99835 181-787): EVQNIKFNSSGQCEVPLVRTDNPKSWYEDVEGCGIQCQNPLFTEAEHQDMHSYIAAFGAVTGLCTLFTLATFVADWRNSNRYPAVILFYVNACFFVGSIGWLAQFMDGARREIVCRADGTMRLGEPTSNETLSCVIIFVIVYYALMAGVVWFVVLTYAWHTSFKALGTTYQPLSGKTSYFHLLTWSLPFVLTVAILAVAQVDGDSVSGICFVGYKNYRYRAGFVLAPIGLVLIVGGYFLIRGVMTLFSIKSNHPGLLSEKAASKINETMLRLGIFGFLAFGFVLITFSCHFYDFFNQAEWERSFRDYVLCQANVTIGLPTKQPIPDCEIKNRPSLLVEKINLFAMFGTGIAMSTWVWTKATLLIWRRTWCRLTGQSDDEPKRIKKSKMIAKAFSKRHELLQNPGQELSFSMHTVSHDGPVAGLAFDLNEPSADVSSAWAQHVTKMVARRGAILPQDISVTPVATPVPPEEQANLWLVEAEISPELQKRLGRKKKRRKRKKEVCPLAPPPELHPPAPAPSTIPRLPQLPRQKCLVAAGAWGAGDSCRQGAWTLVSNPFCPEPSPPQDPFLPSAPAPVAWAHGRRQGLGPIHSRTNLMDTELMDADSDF
Method in brief: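 Displacement of 3 nM tritiated PF-03451358 measured by filtration and scintillation counting after 2 h at room temperature, using 40 μg/well HEK293 membranes bearing cell-surface Smo 181-787, pH 7.5 buffer. Specific binding defined against 30 μM unlabelled ligand; IC50 via variable-slope sigmoidal fit.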

[2] = tested on: Gli-Luc/MEF cells (Smo); assay: Gli-Luc/MEF assay (Shh-stimulated luciferase reporter under the Gli response element); assay type: cell-based, mouse; settings: Mus musculus, MEF, 48 h
Method in brief: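 IC50 derived from luminescence (Bright-Glo) after 48 h at 37° C, 5% CO2, with compound at […] (3-fold dilutions) added together with mouse Shh at 2 μg/mL final. Cells: MEFs from Gli-Luc transgenic mice.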

SMILES	inhibition at 0.05 µM [1]	IC50 [1]	IC50 [2]
CNC(=O)N1CCCN(c2cc(-c3nc4ccccc4n3C)ccn2)CC1 [Example A-155, N-methyl-4-[4-(1-methyl-1H-benzimidazol-2-yl)pyridin-2-yl]-1,4-diazepane-1-carboxamide]	97%	22 nM	12 nM
C[C@H]1CN(c2cc(-c3nc4ccccc4n3C)c(Cl)cn2)CCN1 [Example A-160, 2-{5-chloro-2-[(3S)-3-methylpiperazin-1-yl]pyridin-4-yl}-1-methyl-1H-benzimidazole]	98%	16 nM	7 nM
Cn1c(-c2cc(N3[C@@H]4CC[C@H]3CNC4)ncc2Cl)nc2ccccc21 [Example A-194, 2-{5-chloro-2-[(1R,5S)-3,8-diazabicyclo[3.2.1]oct-8-yl]pyridin-4-yl}-1-methyl-1H-benzimidazole]	111%	13 nM	3.7 nM
CNC(=O)c1[nH]nc2c1CN(c1cc(-c3nc4ccccc4n3C)c(Cl)cn1)CC2 [Example A-114, 5-[5-chloro-4-(1-methyl-1H-benzimidazol-2-yl)pyridin-2-yl]-N-methyl-4,5,6,7-tetrahydro-1H-pyrazolo[4,3-c]pyridine-3-carboxamide]	71%	140 nM	47 nM
COC(=O)N1CCN(c2cc(-c3nc4ccccc4n3C)c(Cl)cn2)CC1 [Example A-2, methyl 4-[5-chloro-4-(1-methyl-1H-benzimidazol-2-yl)pyridin-2-yl]piperazine-1-carboxylate]	87%	17.2 nM	3 nM
Cn1c(-c2cc(N3C[C@@H](O)[C@@H](O)C3)ncc2Cl)nc2ccccc21 [Example A-129, (3R,4S)-1-[5-chloro-4-(1-methyl-1H-benzimidazol-2-yl)pyridin-2-yl]pyrrolidine-3,4-diol]	53%	–	105 nM
Cn1c(-c2nc(N3CCC(S(C)(=O)=O)CC3)ncc2Cl)nc2ccccc21 [Example C-14, 2-{5-chloro-2-[4-(methylsulfonyl)piperidin-1-yl]pyrimidin-4-yl}-1-methyl-1H-benzimidazole]	90%	43 nM	37 nM
COCc1nnc2n1CCN(c1cc(-c3nc4ccccc4n3C)c(Cl)cn1)CC2 [Example A-93, 7-[5-chloro-4-(1-methyl-1H-benzimidazol-2-yl)pyridin-2-yl]-3-(methoxymethyl)-6,7,8,9-tetrahydro-5H-[1,2,4]triazolo[4,3-d][1,4]diazepine]	87%	53 nM	31 nM
CNC(=O)NC1CCN(c2cc(-c3nc4ccccc4n3C)c(F)cn2)CC1 [Example D-13, 1-{1-[5-fluoro-4-(1-methyl-1H-benzimidazol-2-yl)pyridin-2-yl]piperidin-4-yl}-3-methylurea]	97%	23 nM	13.4 nM
Cn1c(-c2cc(N3CCc4[nH]cnc4C3)ncc2Cl)nc2ccccc21 [Example A-107, 5-[5-chloro-4-(1-methyl-1H-benzimidazol-2-yl)pyridin-2-yl]-4,5,6,7-tetrahydro-1H-imidazo[4,5-c]pyridine]	77%	123 nM	37 nM
Cn1c(-c2cc(N3CCN(c4ccc(C#N)cn4)CC3)ncc2Cl)nc2ccccc21 [Example A-189, 6-{4-[5-chloro-4-(1-methyl-1H-benzimidazol-2-yl)pyridin-2-yl]piperazin-1-yl}nicotinonitrile]	99%	11 nM	0.79 nM
COC(=O)NC1CCN(c2cc(-c3nc4ccccc4n3C)c(F)cn2)CC1 [Example D-12, methyl {1-[5-fluoro-4-(1-methy-1H-benzimidazol-2-yl)pyridin-2-yl]plpetidin-4-yl}carbamate]	96%	8 nM	7.7 nM
Cn1c(-c2cc(N3CCN(C(=O)CC(C)(C)O)CC3)ncc2Cl)nc2ccccc21 [Example A-190, 4-{4-[5-chloro-4-(1-methyl-1H-benzimidazol-2-yl)pyridin-2-yl]piperazin-1-yl}-2-methyl-4-oxobutan-2-ol]	98%	7 nM	1.4 nM
Cn1c(-c2cc(N3CCC(OCC(=O)NC4CC4)CC3)ncc2Cl)nc2ccccc21 [Example A-59, 2-({1-[5-chloro-4-(1-methyl-1H-benzimidazol-2-yl)pyridin-2-yl]piperidin-4-yl}oxy)-N-cyclopropylacetamide]	96%	12 nM	3 nM
Cn1c(-c2cc(N3CCC(N4CCNC(=O)C4=O)CC3)ncc2Cl)nc2ccccc21 [Example A-98, 1-{1-[5-chloro-4-(1-methyl-1H-benzimidazol-2-yl)pyridin-2-yl]piperidin-4-yl}piperazine-2,3-dione]	85%	122 nM	66 nM
Cn1c(-c2cc(N3CCC(S(C)(=O)=O)C3)ncc2Cl)nc2ccccc21 (stereo not drawn) [Example A-24, 2-{5-chloro-2-[3-(methylsulfonyl)pyrrolidin-1-yl]pyridin-4-yl}-1-methyl-1H-benzimidazole]	82%	54 nM	20 nM
CC(=O)NC1CCN(c2cc(-c3nc4ccccc4n3C)ccn2)CC1 [Example A-16, N-{1-[4-(1-methyl-1H-benzimidazol-2-yl)pyridin-2-yl]piperidin-4-yl}acetamide]	81%	102 nM	65 nM
Cn1c(-c2cc(N3CC(c4ccn[nH]4)C3)ncc2Cl)nc2ccccc21 [Example A-120, 2-{5-chloro-2-[3-(1H-pyrazol-5-yl)azetidin-1-yl]pyridin-4-yl}-1-methyl-1H-benzimidazole]	62%	–	114 nM
Cn1c(-c2cc(N3CC[C@@H](O)[C@@H](O)C3)ncc2Cl)nc2ccccc21 [Example A-96, (3S,4R)-1-[5-chloro-4-(1-methyl-1H-benzimidazol-2-yl)pyridin-2-yl]piperidine-3,4-diol]	86%	46 nM	16 nM
Cc1noc(CC2CN(c3cc(-c4nc5ccccc5n4C)c(Cl)cn3)CCO2)n1 (stereo not drawn) [Example A-45, 2-(5-chloro-2-{2-[(3-methyl-1,2,4-oxadiazol-5-yl)methyl]morpholin-4-yl}pyridin-4-yl)-1-methyl-1H-benzimidazole]	102%	13 nM	9 nM
CCNC(=O)NC1CCN(c2cc(-c3nc4ccccc4n3C)c(F)cn2)CC1 [Example D-8, 1-ethyl-3-{1-[5-fluoro-4-{1-methyl-1H-benzimidazol-2-yl)pyridin-2-yl]piperidin-4-yl}urea]	95%	6 nM	6 nM
CC(=O)NC1CCN(c2cc(-c3nc4ccccc4n3C)c(Cl)cn2)CC1 [Example A-22, N-{1-[5-chloro-4-(1-methyl-1H-benzimidazol-2-yl)pyridin-2-yl]piperidin-4-yl}acetamide]	94%	11 nM	6 nM
CNC(=O)N1CCN(c2cc(-c3nc4ccccc4n3C)ccn2)CC1 [Example A-144, N-methyl-4-[4-(1-methyl-1H-benzimidazol-2-yl)pyridin-2-yl]piperazine-1-carboxamide]	78%	90 nM	159 nM
Cc1nnc(C)n1C1CCN(c2cc(-c3nc4ccccc4n3C)c(Cl)cn2)CC1 [Example A-124, 2-{5-chloro-2-[4-(3,5-dimethyl-4H-1,2,4-triazol-4-yl)piperidin-1-yl]pyridin-4-yl}-1-methyl-1H-benzimidazole]	59%	–	52 nM
CC(=O)N1CCN(c2cc(-c3nc4ccccc4n3C)c(Cl)cn2)[C@H](C)C1 [Example A-168, 2-{2-[(2R)-4-acetyl-2-methylpiperazin-1-yl]-5-chloropyridin-4-yl}-1-methyl-1H-benzimidazole]	97%	8 nM	7 nM
CN(CCCO)c1cc(-c2nc3ccccc3n2C)c(Cl)cn1 [Example A-163, 3-{[5-chloro-4-(1-methyl-1H-benzimidazol-2-yl)pyridin-2-yl](methyl)amino}propan-1-ol]	98%	17 nM	14 nM
Cn1c(-c2cc(N3CCC(CS(N)(=O)=O)CC3)ncc2Cl)nc2ccccc21 [Example A-65, 1-{1-[5-chloro-4-(1-methyl-1H-benzimidazol-2-yl)pyridin-2-yl]piperidin-4-yl}methanesulfonamide]	95%	6 nM	2 nM
Cn1c(-c2cc(N3CCC(O)CC3)ncc2Cl)nc2cccnc21 [Example A-169, 1-[5-chloro-4-(3-methyl-3H-imidazo[4,5-b]pyridin-2-yl)pyridin-2-yl]piperidin-4-ol]	76%	219 nM	138 nM
CNC(=O)N1CCN(c2cc(-c3nc4ccccc4n3C)c(Cl)cn2)CC1 [Example A-3, 4-[5-chloro-4-(1-methyl-1H-benzimidazol-2-yl)pyridin-2-yl]-N-methylpiperazine-1-carboxamide]	93%	14.1 nM	9 nM
CC(=O)N1CCCN(c2cc(-c3nc4cccnc4n3C)c(Cl)cn2)CC1 [Example A-39, 2-[2-(4-acetyl-1,4-diazepan-1-yl)-5-chloropyridin-4-yl]-3-methyl-3H-imidazo[4,5-b]pyridine]	92%	45 nM	30 nM
